Structures can show the parent of a compound that is named as a salt.
Experiments:
[1] = system: Protease XXIII; assay: Homogeneous aqueous enzymatic resolution (ester hydrolysis) with enzyme A; assay type: biochemical, Aspergillus oryzae; conditions: 10.0 mmol ester in 100 ml 0.2 M phosphate buffer pH 7.0, 100 mg enzyme A, 20-22 °C, 20 hours
Description: The enzymes used in Examples 6.2.1.1-6.2.1.17, 6.2.1.20-6.2.1.21, 6.2.1.23-6.2.1.28, 6.2.2.7, and 6.2.3.1-6.2.3.5 that follow were all proteases commercially available from Sigma Chemical Co., St. Louis, MO. […] For examples 6.2.2.5-6.2.2.6, Candida lipase obtained from Genzyme Corporation was used.
No further purification was performed.
The aqueous layer was retained.

[2] = target: T1, Protease VIII: "Subtilopeptidase A" (Bacillus licheniformis, UniProt P00780); assay: Homogeneous aqueous enzymatic resolution (ester hydrolysis) with enzyme B; assay type: biochemical; conditions: 10.0 mmol ester in 100 ml 0.2 M phosphate buffer pH 7.0, 100 mg enzyme B, 20-22 °C, 20 hours
T1 sequence (P00780 106-379): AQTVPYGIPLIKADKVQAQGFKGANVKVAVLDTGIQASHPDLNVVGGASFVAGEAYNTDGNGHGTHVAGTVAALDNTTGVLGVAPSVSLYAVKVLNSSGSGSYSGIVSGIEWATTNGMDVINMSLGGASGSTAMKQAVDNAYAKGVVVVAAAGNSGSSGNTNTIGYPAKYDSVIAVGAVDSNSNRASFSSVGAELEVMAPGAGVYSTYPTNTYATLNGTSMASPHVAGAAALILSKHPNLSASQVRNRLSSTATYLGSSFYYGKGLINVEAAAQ

[3] = system: Protease XVI; assay: Homogeneous aqueous enzymatic resolution (ester hydrolysis) with enzyme C; assay type: biochemical, Bacillus subtilis; conditions: 10.0 mmol ester in 100 ml 0.2 M phosphate buffer pH 7.0, 100 mg enzyme C, 20-22 °C, 20 hours
Description: (§1) The enzymes used in Examples 6.2.1.1-6.2.1.17, 6.2.1.20-6.2.1.21, 6.2.1.23-6.2.1.28, 6.2.2.7, and 6.2.3.1-6.2.3.5 that follow were all proteases commercially available from Sigma Chemical Co., St. Louis, MO. These proteases are listed in each example using the Sigma numbering system, which is summarized below: • Protease VIII: "Subtilopeptidase A", product P-5380 (also known as subtilisin Carlsberg) • Protease XIV: from Streptomyces griseus, product P-5147 • Protease XVI: from Bacillus subtilis, product P-8775 • Protease XXIII: from Aspergillus oryzae, product P-4032 • Protease XXVII: "Nagarse", product P-4789 • Protease XXIV: bacterial protease, product P-8038 An additional protease enzyme, which was designated Prozyme 6, was obtained from the Amano Enzyme Corporation and used in Examples 6.2.1.18-6.2.19, 6.2.1.22, 6.2.1.29-6.2.1.30 and 6.2.2.1-6.2.2.4 described below. A pig liver esterase was used in Example 6.21.11; this enzyme, obtained from Sigma Chemical Company, was designated as their product E-3128. For examples 6.2.2.5-6.2.2.6, Candida lipase obtained from Genzyme Corporation was used. Finally, Candida lipase, product L-1754, obtained from Sigma Chemical Co. was used in Example 6.2.2.7.

[4] = target: T2, Protease XXVII: "Nagarse" (Bacillus amyloliquefaciens, UniProt P00782); assay: Homogeneous aqueous enzymatic resolution (ester hydrolysis) with enzyme D; assay type: biochemical; conditions: 10.0 mmol ester in 100 ml 0.2 M phosphate buffer pH 7.0, 100 mg enzyme D, 20-22 °C, 20 hours
T2 sequence (P00782 108-382): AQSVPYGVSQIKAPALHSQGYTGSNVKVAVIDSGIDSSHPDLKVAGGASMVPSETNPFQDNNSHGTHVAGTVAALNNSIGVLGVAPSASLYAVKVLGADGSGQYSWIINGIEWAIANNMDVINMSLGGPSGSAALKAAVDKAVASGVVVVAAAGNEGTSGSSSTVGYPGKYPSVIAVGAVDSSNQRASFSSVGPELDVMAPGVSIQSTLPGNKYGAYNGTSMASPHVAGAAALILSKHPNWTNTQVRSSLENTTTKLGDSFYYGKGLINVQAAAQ
Description: as §1

[5] = system: Prozyme 6; assay: Homogeneous aqueous enzymatic resolution (ester hydrolysis) with enzyme F; assay type: biochemical, Aspergillus oryzae; conditions: for Conversion in Homogeneous Aqueous Reaction System: 30 °C
[6] = system: Prozyme 6; assay: Asymmetric hydrolysis in an extractive dispersion reactor with enzyme F; assay type: biochemical, Aspergillus oryzae; conditions: 3.38 gm ester in 100 ml 0.2 M sodium phosphate buffer pH 7.0 and 100 ml hexane, 100 mg Prozyme 6, 3.5 hours at room temperature, vigorous stirring
Description: In this Example, the hexane was dispersed in the reaction vessel to extract the inhibitory ibuprofen acid as it is formed. The
reaction was started by adding 100 mg of the protease from the fungus Aspergillus oryzae (from Amano Enzyme Corporation, Prozyme 6, 60,000 units per mg of solid).
After 3.5 hours at room temperature with vigorous stirring, the solution was acidified to pH 2 and extracted with 2 volumes of hexane. The aqueous phase was saved for subsequent workup. The hexane phase was dried over MgS04 and evaporated to dryness. The resolved ibuprofen product so recovered consisted of 490 mg of white powder, indicating 24% conversion. The optical rotation was -0.568 (c = 1.015 in ethanol), indicating the R isomer of ibuprofen.

[7] = system: Prozyme 6; assay: Asymmetric hydrolysis in an extractive membrane reactor with enzyme F; assay type: biochemical, Aspergillus oryzae; conditions: for enantiomeric excess: chiral HPLC, enzyme in aqueous phase only, 6.3 hours
[8] = system: lipase from Candida cylindracea (Lipase OF); assay: Activity of the carrier lipase against the ester; assay type: biochemical; conditions: Meito Sangyo Company
[9] = system: Candida lipase (Genzyme Corporation); assay: Asymmetric hydrolysis in a multiphase membrane bioreactor with enzyme G; assay type: biochemical, Candida cylindracea; conditions: first 45 minutes; 0.75M ester in MIBK, 3.0 grams lipase in membrane, pH 8.50
Description: The module was then drained.
This material was recrystallized from hexane.

[10] = system: intact microorganism; conditions: 400 mg dried cells, 160 mg (±)-substrate; Iriuchijima and Keiyu 1981; cited from earlier work
[11] = target: T1, Protease VIII: "Subtilopeptidase A"; assay: Rate of hydrolysis of single enantiomers by pH stat, enzyme B; assay type: biochemical; conditions: for Rate: 50 mM single enantiomer, 50 mM buffer pH 7.6, enzyme B
Description: (§2) 15 ml of a solution containing one enantiomer of the ester at a concentration of 50 mM, and Na3PO4 buffer at 50 mM and pH 7.6 was observed using a pH stat device. 0.1 ml of a 50 mg/ml solution of enzyme B, made up from the commercially available preparation in 50 mM Na3 P04 buffer at pH 7.6, were added. Rates of hydrolysis of both enantiomers of the ester compound were determined for the enzyme. The ratio of the rates of hydrolysis for the two enantiomers for the two enantiomers with respect to the enzyme indicate the stereospecificity of that enzyme's hydrolytic action on the racemic mixture of the ester. No evidence for the hydrolysis of the acetylthio ester portion of the substrate molecule was found.

[12] = system: Protease XIV; assay: Rate of hydrolysis of single enantiomers by pH stat, enzyme I; assay type: biochemical, Streptomyces griseus; conditions: for Rate: 50 mM single enantiomer, 50 mM buffer pH 7.6, Example 6.2.3.2 (enzyme I in text, (G) in table)
Description: as §2, with “solution of protease enzyme I,” for “solution of enzyme B,”, “protease enzyme I, made up” for “of enzyme B, made up”, “50 mM Na3PO4 buffer at” for “50 mM Na3 P04 buffer at”, “for the protease enzyme. The” for “for the enzyme. The”, “ester. No” for “ester. No evidence for the hydrolysis of the acetylthio ester portion of the substrate molecule was found.”
evidence for the hydrolysis of the acetylthio ester portion of the substrate molecule was found.

[13] = system: Protease XXIII; assay: Rate of hydrolysis of single enantiomers by pH stat, enzyme A; assay type: biochemical, Aspergillus oryzae; conditions: for Rate: 50 mM single enantiomer, 50 mM buffer pH 7.6, enzyme A
Description: as §2, with “A,” for “B,”

[14] = system: Protease XXIV: bacterial protease; assay: Rate of hydrolysis of single enantiomers by pH stat, enzyme J; assay type: biochemical; conditions: for Rate: 50 mM single enantiomer, 50 mM buffer pH 7.6, Example 6.2.3.4 (Enzyme J in text, (H) in table)
Description: as §2, with “Enzyme J,” for “enzyme B,”, “Na3PO4” for “Na3 P04”

[15] = target: T2, Protease XXVII: "Nagarse"; assay: Rate of hydrolysis of single enantiomers by pH stat, enzyme D; assay type: biochemical; conditions: for Rate: 50 mM single enantiomer, 50 mM buffer pH 7.6, enzyme D
Description: as §2, with “D,” for “B,”, “thioacetyl” for “acetylthio”

CC(C)Cc1ccc(C(C)C(=O)OCS(=O)(=O)O)cc1 (racemic) [Compound 1, Sodium Salt of 4-Sulfomethyl Ester of 2-(4-Isobutylphenyl) propanoic Acid]
% CONVERSION [1]: 37.9% | % e.e. ([1]; acid product, R): >99% | % CONVERSION [2]: 29.1% | % e.e. ([2]; acid product, R): 44.6% | % CONVERSION [3]: 27.2% | % e.e. ([3]; acid product, R): 70.7% | % CONVERSION [4]: 34.0% | % e.e. ([4]; acid product, R): 37.7% | conversion of racemic ester to acid ([5]; 3.22 gm ester in 100 ml 0.2 M sodium phosphate buffer pH 7.0, 100 mg protease (F), 20 hours at room temperature): 45% | conversion ([5]; After 6.49 hours at 30 °C, 0.5 M ester in 325 ml 0.1 M sodium phosphate buffer pH 7.0, 3 gm enzyme (F)): 37.7% | Conversion in Homogeneous Aqueous Reaction System ([5]; Time 6.75 hrs, 0.5 M ester in 325 ml 0.1 M sodium phosphate buffer pH 7.0, 3 gm enzyme (F)): 37.7% | Conversion in Homogeneous Aqueous Reaction System ([5]; Time 23.1 hrs, 0.5 M ester in 325 ml 0.1 M sodium phosphate buffer pH 7.0, 3 gm enzyme (F)): 40.9% | conversion [6]: 24% | enantiomeric excess ([7]; R ibuprofen acid product): 99.3% | enantiomeric excess ([7]; S ibuprofen from hydrolysis (pH 12) of the unconverted ester): 98.9% | conversion of the racemic ester to the acid ([7]; enzyme in aqueous phase and in membrane pores (polyacrylonitrile fibers, 80% cyclohexane:20% toluene), 0.5 M ester, 3 gm protease (F), 6.75 hours at 30 °C): 48.3% | conversion of the racemic ester to ibuprofen acid ([7]; enzyme in aqueous phase only (cellulose dialysis fibers, hexane), 32.51 gm ester in 1000 ml 0.1 M sodium phosphate buffer pH 7.0, 2 gm protease (F), 6.3 hours at room temperature): 50% | activity of the enzyme against the ester [8]: inactive

COC(=O)C(C)c1ccc2cc(OC)ccc2c1 (racemic) [Compound 18, Methyl Ester of 2-(6-Methoxy-2-naphthyl)propanoic Acid]
average rate [9]: 35 amol/hr | substrate converted [10]: 16.3%

CC(=O)SC[C@@H](C)C(=O)OCS(=O)(=O)O [Compound 14, Potassium Salt of the Sulfomethyl Ester of D-(-)-S-3-Acetylthio-2-methylpropanoic Acid]
Rate [11]: 65 umols/hr/mg | Rate [12]: 63 umols/hr/mg | Rate [13]: 5.3 umols/hr/mg | Rate [14]: 61 umols/hr/mg | Rate [15]: 27 umols/hr/mg

CC(=O)SC[C@H](C)C(=O)OCS(=O)(=O)O [Compound 15, Potassium Salt of the Sulfomethyl Ester of L-(+)-S-3-Acetylthio-2-methylpropanoic Acid]
Rate [11]: 135 umols/hr/mg | Rate Ratio L/D ([11]; enzyme B, pH 7.6): 2.1 | Rate [12]: 105 umols/hr/mg | Rate Ratio L/D ([12]; Example 6.2.3.2, pH 7.6): 1.7 | Rate [13]: 12 umols/hr/mg | Rate Ratio L/D ([13]; enzyme A, pH 7.6): 2.3 | Rate [14]: 65 umols/hr/mg | Rate Ratio L/D ([14]; Example 6.2.3.4, pH 7.6): 1.1 | Rate [15]: 29 umols/hr/mg | Rate Ratio L/D ([15]; enzyme D, pH 7.6): 1.1

— patent EP0423133B1, “ENZYMATIC RESOLUTION SYSTEMS AND COMPOUNDS USEFUL IN THE SYSTEMS AND THEIR REPARATIONS” (priority 1988, dated 1989)
